# From ChEMBL document CHEMBL3826977, “Discovery and Structural Characterization of G-quadruplex DNA in Human Acetyl-CoA Carboxylase Gene Promoters: Its Role in Transcriptional Regulation and as a Therapeutic Target for Human Disease” (J Med Chem, 2016)
# The source made the active and inactive calls. No cut-off for these calls is given here.
# Key:
# [1] = Binding affinity to human ACC1 promoter1 G-quadraduplex DNA
# [2] = Binding affinity to human ACC1 promoter2 G-quadraduplex DNA
# Homo sapiens [3] = organism: Homo sapiens; assay: Binding affinity to human ACC1 promoter2 G-quadraduplex DNA assessed as hyperchromic shift at 5 uM by UV-vis absorption spectroscopy
# Homo sapiens [4] = organism: Homo sapiens; assay: Binding affinity to human ACC1 promoter2 G-quadraduplex DNA assessed as bathochromic red shift at 5 uM by UV-vis absorption spectroscopy
# Homo sapiens [5] = organism: Homo sapiens; assay: Binding affinity to human ACC1 promoter2 G-quadraduplex DNA assessed as apparent isosbestic point at 5 uM by UV-vis absorption spectroscopy
# Homo sapiens [6] = organism: Homo sapiens; assay: Binding affinity to human ACC1 promoter1 G-quadraduplex DNA at 5 uM by UV-vis absorption spectroscopy
# Homo sapiens [7] = organism: Homo sapiens; assay: Binding affinity to human ACC1 promoter1 G-quadraduplex DNA assessed as decrease in fluorescence emission intensity by fluorescence emission spectroscopy
# Homo sapiens [8] = organism: Homo sapiens; assay: Binding affinity to human ACC1 promoter2 G-quadraduplex DNA assessed as decrease in fluorescence emission intensity by fluorescence emission spectroscopy
# Homo sapiens [9] = organism: Homo sapiens; assay: Binding affinity to human ACC1 promoter1 G-quadraduplex DNA assessed as inhibition of Taq-polymerase catalyzed primer extension preincubated for 1 hr followed by addition of Taq-polymerase measured after 30 mins by Taq-polymerase stop assay
# Homo sapiens [10] = organism: Homo sapiens; assay: Binding affinity to human ACC1 promoter1 G-quadraduplex DNA mutant assessed as inhibition of Taq-polymerase catalyzed primer extension preincubated for 1 hr followed by addition of Taq-polymerase measured after 30 mins by Taq-polymerase stop assay
# Homo sapiens [11] = organism: Homo sapiens; assay: Binding affinity to human ACC1 promoter2 G-quadraduplex DNA assessed as inhibition of Taq-polymerase catalyzed primer extension preincubated for 1 hr followed by addition of Taq-polymerase measured after 30 mins in presence of KCl by Taq-polymerase stop assay
# Homo sapiens [12] = organism: Homo sapiens; assay: Binding affinity to human ACC1 promoter2 G-quadraduplex DNA mutant assessed as inhibition of Taq-polymerase catalyzed primer extension preincubated for 1 hr followed by addition of Taq-polymerase measured after 30 mins in presence of KCl by Taq-polymerase stop assay
# HeLa [13] = assay: Binding affinity to human wild type ACC1 promoter1 G-quadraduplex DNA transfected in human HeLa cells assessed as suppression of ACC1 gene expression after 24 hrs by dual luciferase reporter assay; format: cell-based
# HeLa [14] = assay: Binding affinity to human wild type ACC1 promoter2 G-quadraduplex DNA transfected in human HeLa cells assessed as suppression of ACC1 gene expression after 24 hrs by dual luciferase reporter assay; format: cell-based
# HeLa [15] = assay: Binding affinity to human wild type ACC1 promoter1 G-quadraduplex DNA transfected in human HeLa cells assessed as suppression of ACC1 gene expression at 0.1 to 25 uM after 24 hrs by dual luciferase reporter assay relative to control; format: cell-based
# HeLa [16] = assay: Binding affinity to human wild type ACC1 promoter2 G-quadraduplex DNA transfected in human HeLa cells assessed as suppression of ACC1 gene expression at 0.1 to 25 uM after 24 hrs by dual luciferase reporter assay relative to control; format: cell-based
# HeLa [17] = assay: Binding affinity to human ACC1 promoter G-quadraduplex DNA transfected in human HeLa cells assessed as suppression of ACC1 gene expression after 24 hrs by qRT-PCR method; format: cell-based
# HeLa [18] = assay: Effect on GAPDH gene expression in human HeLa cells at 5 to 20 uM after 24 hrs by qRT-PCR method; format: ADME, cell-based
smiles,measurement,setting,value
C[n+]1ccc(-c2c3nc(c(-c4cc[n+](C)cc4)c4ccc([nH]4)c(-c4cc[n+](C)cc4)c4nc(c(-c5cc[n+](C)cc5)c5ccc2[nH]5)C=C4)C=C3)cc1,Kd,[1],70 nM
same,Kd,[2],70 nM
C[n+]1ccc(-c2c3nc(c(-c4cc[n+](C)cc4)c4ccc([nH]4)c(-c4cc[n+](C)cc4)c4ccc([nH]4)c(-c4cc[n+](C)cc4)c4nc2C=C4)C=C3)cc1,Activity,Homo sapiens [3],Active
same,Activity,Homo sapiens [4],18 nm
same,Activity,Homo sapiens [5],432 nm
same,Activity,Homo sapiens [6],Active
same,Activity,Homo sapiens [7],Active
same,Activity,Homo sapiens [8],Active
same,inhibition,Homo sapiens [9],Dose-dependent effect
same,inhibition,Homo sapiens [10],inactive
same,inhibition,Homo sapiens [11],Dose-dependent effect
same,inhibition,Homo sapiens [12],Active
same,inhibition,HeLa [13],Dose-dependent effect
same,inhibition,HeLa [14],Dose-dependent effect
same,inhibition,HeLa [15],67%
same,inhibition,HeLa [16],84%
c1cc2c(cc1-c1nc3cc(N4CCOCC4)ccc3[nH]1)c1cc(-c3nc4cc(N5CCOCC5)ccc4[nH]3)ccc1n2CCCCN1CCOCC1,inhibition,HeLa [17],Dose-dependent effect
same,Activity,HeLa [18],Non-toxic
